Test results as given in ChEMBL document CHEMBL1147703, “Synthesis of a potent 5'-methylthioadenosine/S-adenosylhomocysteine (MTAN) inhibitor” (Bioorg Med Chem Lett, 2006).

Biological target: 5'-methylthioadenosine/S-adenosylhomocysteine nucleosidase (Escherichia coli O157:H7, UniProt P0AF14)
Assay: Inhibition of Escherichia coli MTAN

Chain of 5'-methylthioadenosine/S-adenosylhomocysteine nucleosidase (P0AF14 whole entry): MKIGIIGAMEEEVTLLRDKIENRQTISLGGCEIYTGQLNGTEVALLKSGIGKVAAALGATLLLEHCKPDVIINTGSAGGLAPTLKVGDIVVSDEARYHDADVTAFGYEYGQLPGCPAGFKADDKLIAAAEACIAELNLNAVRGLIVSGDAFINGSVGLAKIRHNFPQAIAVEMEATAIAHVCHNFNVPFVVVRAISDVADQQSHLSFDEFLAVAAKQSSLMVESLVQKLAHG

Molecule `Nc1ncnc2c([C@@H]3N[C@H](CSCCC(N)C(=O)O)[C@@H](O)[C@H]3O)c[nH]c12` (stereo partly specified) has a Ki of 1.7 nM.
